The subject of test [1] is OTC. The test can be described thus: HSP90 or HSP70 inhibitors in primary human hepatocytes, OTC mRNA. The format is cell-based. To be noted: hepatocytes from Donor B, normalized to B2M. How it is done:
(§1) Additional small molecules that inhibit HSP90 or HSP70 were tested in primary human hepatocytes as described in Example 2. HSP90 or HSP70 inhibitors were tested in triplicate at 0.3 μM and 3 μM. The results are shown as the fold change (mRNA FC) in the mRNA levels of OTC and CPS1 genes after treatment compared to an untreated control (DMSO) and the standard deviation (SD). In addition, a dose titration experiment was performed with selected HSP90 inhibitors. Hepatocytes were incubated with increasing concentrations of HSP90 inhibitors and the changes in OTC and CPS1 expression quantified as previously described.
(§2) HSP90 and HSP70 inhibitors were compared to confirm the role of HSP90 in modulating OTC and CPS1 expression. Hepatocytes from Donor B were incubated with various HSP90 inhibitors or an HSP70 inhibitor, Pifithrin-μ, and then harvested for mRNA quantification. OTC and CPS1 mRNA levels were normalized to B2M.

For test [2], the system named is CPS1. The test can be described thus: HSP90 or HSP70 inhibitors in primary human hepatocytes, CPS1 mRNA. It counts as cell-based. The settings on record: hepatocytes from Donor B, normalized to B2M. How it is done: as §1, §2
In the next test the test system is SLC25A15. The test can be described thus: RNA-seq of compound-treated primary human hepatocytes, SLC25A15 expression. The format is cell-based.
A further test has as its system NAGS. The format is cell-based, human.
Another test relates to ARG1. The test can be described thus: RNA-seq of compound-treated primary human hepatocytes, ARG1 expression. The format is cell-based.
In a further test the test system is SLC25A13. The test can be described thus: RNA-seq of compound-treated primary human hepatocytes, SLC25A13 expression. It counts as cell-based. To be noted: for Relative SLC25A13 level vs Untreated (±Standard Deviation): primary human hepatocytes, triplicate (Table 23, FIG. 15).
Test [3] concerns CPS1. In words: RNA-seq of compound-treated primary human hepatocytes, CPS1 expression. To be noted: for Relative CPS1 level vs Untreated (±Standard Deviation): primary human hepatocytes, triplicate (Table 19, FIG. 11). It counts as cell-based.
The test system of the next test is ASS1. The test can be described thus: RNA-seq of compound-treated primary human hepatocytes, ASS1 expression. It counts as cell-based.
Test [4] concerns OTC. In words: RNA-seq of compound-treated primary human hepatocytes, OTC expression. It counts as cell-based.
The subject of another test is urea cycle genes. The test can be described thus: RNA-seq of primary human hepatocytes, compounds that modulate multiple urea cycle-related genes. The format is cell-based. To be noted: primary human hepatocytes, RNA-seq.
Setting [5] is: Example 11, relative mRNA vs DMSO.

“And” between values parts separate entries of the source, which are not always exact repeats. Identical values can stand only once. Like-named read-outs stand apart in the source and are kept apart here.

On to `CO[C@H]1/C=C\C=C(/C)C(=O)NC2=CC(=O)C(NCCN(C)C)=C(C[C@@H](C)C[C@H](OC)[C@H](O)[C@@H](C)/C=C(\C)[C@@H]1OC(N)=O)C2=O` [Alvespimycin], for which the “OTC Expression mRNA FC” value with OTC [1] (0.3 uM) is 3.03; with OTC [1] (3 uM), 1.57. For the same molecule, the “CPS1 Expression mRNA FC” value with CPS1 [2] (0.3 uM) amounted to 2.33; with CPS1 [2] (3 uM) it was 1.94.
Turning to `COc1ccc(-c2ccc3c(N4CCOC[C@@H]4C)nc(N4CCOC[C@@H]4C)nc3n2)cc1CO` [AZD8055], the “Relative SLC25A15 level vs Untreated (±Standard Deviation)” value with SLC25A15 (3 μM, primary human hepatocytes, triplicate (Table 24, FIG. 16A-B)) was 1.33 ± 0.06 and 1.85 ± 0.26; in the test on SLC25A15 (10 μM, primary human hepatocytes, triplicate (Table 24, FIG. 16A-B)), 1.54 ± 0.12 and 1.68 ± 0.26. For the same molecule, the “Relative NAGS level vs Untreated (±Standard Deviation)” value is recorded as 1.31 ± 0.20 in the test on NAGS (0.3 μM, primary human hepatocytes, triplicate (Table 21, FIG. 13)); 1.41 ± 0.28 with NAGS (1 μM, primary human hepatocytes, triplicate (Table 21, FIG. 13)); 1.93 ± 0.02 with NAGS (10 μM, primary human hepatocytes, triplicate (Table 21, FIG. 13)). In addition, the “increase in NAGS gene expression (Tables 21, 22, FIG. 13, 14)” value in the test with NAGS (setting [5]) is listed as “greatest increase”. Also, the “Relative ARGI level vs Untreated (±Standard Deviation)” value with ARG1 (1 μM, primary human hepatocytes, triplicate (Table 17, FIG. 9)) is recorded as 1.34 ± 0.24; in the test with ARG1 (3 μM, primary human hepatocytes, triplicate (Table 17, FIG. 9)), 1.42 ± 0.03; in the test with ARG1 (10 μM, primary human hepatocytes, triplicate (Table 17, FIG. 9)) it was 1.35 ± 0.08. For the same molecule, the “Relative SLC25A13 level vs Untreated (±Standard Deviation)” value with SLC25A13 (3 μM) is listed as 1.33 ± 0.06; in the test with SLC25A13 (10 μM), 1.54 ± 0.12. Moreover, the “Relative CPS1 level vs Untreated (±Standard Deviation)” value is recorded as 1.38 ± 0.27 with CPS1 [3] (0.3 μM), 1.38 ± 0.67 in the test on CPS1 [3] (1 μM) and 1.60 ± 0.07 in the test with CPS1 [3] (3 μM). Also, in the test on ASS1 (10 μM, primary human hepatocytes, triplicate (Table 15, FIG. 7)), the “Relative ASS1 level vs Untreated (±Standard Deviation)” value was 1.44 ± 0.27.
In the case of `FC(F)(F)c1ccc(/C=C/c2nc(COc3ccc(CCCCn4ccnn4)cc3)co2)cc1` [Mubritinib (TAK 165), Mubritinib], the “Increase in SLC25A15 gene expression (qualitative)” value in the test on SLC25A15 was “greatest increase”. In the test on ARG1, the “Relative ARGI level vs Untreated (±Standard Deviation)” value is 1.93 ± 0.05 and 1.86 ± 0.04; the “increase in ARG1 gene expression (Tables 17, 18, FIG. 9, 10)” value was “greatest increase”. Moreover, the “Relative SLC25A13 level vs Untreated (±Standard Deviation)” value with SLC25A13 (0.3 μM) turned out to be 1.34 ± 0.33. The “increase in CPS1 gene expression (Tables 19, 20, FIG. 11, 12)” value in the test on CPS1 [3] is “greatest increase”. The “increase in OTC gene expression (Table 14, FIG. 6)” value in the test with OTC [4] is recorded as “significant increase”. Also, in the test on ASS1, the “Relative ASS1 level vs Untreated (±Standard Deviation)” value is 2.56 ± 0.11 and 2.23 ± 0.53 and 2.52 ± 0.15 and 1.66 ± 0.98 and 1.87 ± 0.24 and 2.14 ± 0.39 and 2.77 ± 0.69; the “increase in ASS1 gene expression (Tables 15, 16, FIG. 7, 8)” value was “greatest increase”.
As to `O=C1CCc2c(Oc3ccc4c(c3)[C@@H]3[C@H](O4)[C@H]3c3nc4ccc(C(F)(F)F)cc4[nH]3)ccnc2N1` [Lifirafenib (BGB-283), Lifirafenib], the “Relative SLC25A15 level vs Untreated (±Standard Deviation)” value in the test on SLC25A15 is 1.92 ± 0.11 and 2.00 ± 0.13. Besides, the “Relative NAGS level vs Untreated (±Standard Deviation)” value in the test with NAGS was 1.35 ± 0.35 and 1.44 ± 0.15. Further, the “Relative SLC25A13 level vs Untreated (±Standard Deviation)” value in the test with SLC25A13 (10 μM) is 1.92 ± 0.11. In addition, the “increase in SLC25A13 gene expression (Table 23, FIG. 15)” value in the test on SLC25A13 (setting [5]) is “greatest increase”. For the same molecule, the “Relative ASS1 level vs Untreated (±Standard Deviation)” value in the test with ASS1 worked out at 1.55 ± 0.28.
As for `NS(=O)(=O)C#Cc1ccccc1` [Pifithrin-μ], the “number of urea cycle genes whose expression was significantly up-regulated” value with urea cycle genes is “three”. For the same molecule, the “Up-regulated Genes” value in the test with urea cycle genes (urea cycle-related genes significantly increased (Table 10)) is “OTC, NAGS, ARG1”. The “OTC Expression mRNA FC” value in the test on OTC [1] (0.3 uM) was 1.20; in the test on OTC [1] (3 uM), 1.29. The “Fold change (Log 2) vs untreated, NAGS expression” value in the test on NAGS (primary human hepatocytes, RNA-seq (Table 6)) is on record as 1.18 Log 2. Further, the “Fold change (Log 2) vs untreated, ARG1 expression” value in the test with ARG1 (primary human hepatocytes, RNA-seq (Table 7)) worked out at 1.87 Log 2. Moreover, the “CPS1 Expression mRNA FC” value is listed as 0.98 with CPS1 [2] (0.3 uM) and 1.05 with CPS1 [2] (3 uM). Besides, the “OTC expression, Fold change (Log 2) vs untreated” value in the test with OTC [4] (primary human hepatocytes, RNA-seq) is 0.79 Log 2.

The record behind these values is patent publication US11266655B2, “Methods and compositions for treating urea cycle disorders” (Camp4 Therapeutics Corporation, priority 2019, dated 2022).
